ChEMBL document CHEMBL2440076, “New triarylpyrazoles as broad-spectrum anticancer agents: design, synthesis, and biological evaluation” (Eur J Med Chem, 2013)

What was measured:
LOX IMVI [1] = assay: Growth inhibition of human LOXIMVI cells assessed as cell growth at 10 uM after 48 hrs by sulforhodamine B assay; type: functional; conditions: read-out: Activity
OVCAR-4 [2] = assay: Growth inhibition of human OVCAR4 cells assessed as cell growth at 10 uM after 48 hrs by sulforhodamine B assay; type: functional; conditions: OVCAR-4, 48 h, read-out: Activity
Malme-3M [3] = assay: Growth inhibition of human MALME-3M cells after 48 hrs by sulforhodamine B assay; type: functional
IGROV-1 = assay: Growth inhibition of human IGROV1 cells assessed as cell growth at 10 uM after 48 hrs by sulforhodamine B assay; type: functional; conditions: IGROV-1, 48 h, read-out: Activity
MDA-MB-435 = assay: Growth inhibition of human MDA-MB-435 cells assessed as cell growth at 10 uM after 48 hrs by sulforhodamine B assay; type: functional; conditions: MDA-MB-435, 48 h, read-out: Activity
M14 = assay: Growth inhibition of human M14 cells after 48 hrs by sulforhodamine B assay; type: functional; conditions: M14, 48 h
SF-268 = assay: Growth inhibition of human SF268 cells after 48 hrs by sulforhodamine B assay; type: functional; conditions: SF-268, 48 h
SR = assay: Growth inhibition of human SR cells after 48 hrs by sulforhodamine B assay; type: functional
A498 = assay: Growth inhibition of human A498 cells after 48 hrs by sulforhodamine B assay; type: functional, cell-based; conditions: A498, 48 h
[4] = Growth inhibition of human NCI-ADR-RES cells assessed as cell growth at 10 uM after 48 hrs by sulforhodamine B assay; type: functional; conditions: read-out: Activity
A549 = assay: Growth inhibition of human A549/ATCC cells assessed as cell growth at 10 uM after 48 hrs by sulforhodamine B assay; type: functional; conditions: A549, 48 h, read-out: Activity
OVCAR-4 [5] = assay: Growth inhibition of human OVCAR4 cells after 48 hrs by sulforhodamine B assay; type: functional; conditions: OVCAR-4, 48 h
HCT-15 [6] = assay: Growth inhibition of human HCT15 cells assessed as cell growth at 10 uM after 48 hrs by sulforhodamine B assay; type: functional; conditions: HCT-15, 48 h, read-out: Activity
NCI-H226 [7] = assay: Growth inhibition of human NCI-H226 cells assessed as cell growth at 10 uM after 48 hrs by sulforhodamine B assay; type: functional; conditions: NCI-H226, 48 h, read-out: Activity
HT-29 = assay: Growth inhibition of human HT-29 cells assessed as cell growth at 10 uM after 48 hrs by sulforhodamine B assay; type: functional; conditions: HT-29, 48 h, read-out: Activity
KM12 = assay: Growth inhibition of human KM12 cells assessed as cell growth at 10 uM after 48 hrs by sulforhodamine B assay; type: functional; conditions: KM12, 48 h, read-out: Activity
NCI-H322M = assay: Growth inhibition of human NCI-H322M cells assessed as cell growth at 10 uM after 48 hrs by sulforhodamine B assay; type: functional; conditions: read-out: Activity
HOP-92 [8] = assay: Growth inhibition of human HOP92 cells assessed as cell growth at 10 uM after 48 hrs by sulforhodamine B assay; type: functional; conditions: HOP-92, 48 h, read-out: Activity
COLO 205 = assay: Growth inhibition of human COLO205 cells after 48 hrs by sulforhodamine B assay; type: functional; conditions: COLO 205, 48 h
CCRF-CEM = assay: Growth inhibition of human CCRF-CEM cells assessed as cell growth at 10 uM after 48 hrs by sulforhodamine B assay; type: functional; conditions: read-out: Activity
HOP-62 = assay: Growth inhibition of human HOP62 cells after 48 hrs by sulforhodamine B assay; type: functional; conditions: HOP-62, 48 h
OVCAR-8 = assay: Growth inhibition of human OVCAR8 cells after 48 hrs by sulforhodamine B assay; type: functional; conditions: OVCAR-8, 48 h
HCT-15 [9] = assay: Growth inhibition of human HCT15 cells after 48 hrs by sulforhodamine B assay; type: functional; conditions: HCT-15, 48 h
SF-539 = assay: Growth inhibition of human SF539 cells assessed as cell growth at 10 uM after 48 hrs by sulforhodamine B assay; type: functional; conditions: SF-539, 48 h, read-out: Activity
ACHN = assay: Growth inhibition of human ACHN cells after 48 hrs by sulforhodamine B assay; type: functional
Malme-3M [10] = assay: Growth inhibition of human MALME-3M cells assessed as cell growth at 10 uM after 48 hrs by sulforhodamine B assay; type: functional; conditions: read-out: Activity
SN12C = assay: Growth inhibition of human SN12C cells after 48 hrs by sulforhodamine B assay; type: functional
MOLT-4 = assay: Growth inhibition of human MOLT4 cells assessed as cell growth at 10 uM after 48 hrs by sulforhodamine B assay; type: functional; conditions: MOLT-4, 48 h, read-out: Activity
MCF7 = assay: Growth inhibition of human MCF7 cells assessed as cell growth at 10 uM after 48 hrs by sulforhodamine B assay; type: functional; conditions: MCF7, 48 h, read-out: Activity
NCI-H226 [11] = assay: Growth inhibition of human NCI-H226 cells after 48 hrs by sulforhodamine B assay; type: functional; conditions: NCI-H226, 48 h
UACC-62 = assay: Growth inhibition of human UACC62 cells after 48 hrs by sulforhodamine B assay; type: functional; conditions: UACC-62, 48 h
HCT-116 = assay: Growth inhibition of human HCT116 cells after 48 hrs by sulforhodamine B assay; type: functional; conditions: HCT-116, 48 h
SNB-19 = assay: Growth inhibition of human SNB19 cells after 48 hrs by sulforhodamine B assay; type: functional; conditions: SNB-19, 48 h
HOP-92 [12] = assay: Growth inhibition of human HOP92 cells after 48 hrs by sulforhodamine B assay; type: functional, cell-based; conditions: HOP-92, 48 h
LOX IMVI [13] = assay: Growth inhibition of human LOXIMVI cells after 48 hrs by sulforhodamine B assay; type: functional
[14] = read-out: LC50 (the source's name)

With `COc1cc(-c2nn(-c3cccc(NC(=O)Nc4cccc(C(F)(F)F)c4)c3)cc2-c2ccncc2)ccc1Cl` the growth at 10 µM (LOX IMVI [1]) was -64.2%, the growth at 10 µM (OVCAR-4 [2]) was 11.1% and the GI50 (Malme-3M [3]) was 1050 nM. For the same compound, the LC50 (concentration killing 50% of starting cells) (Malme-3M [3]) was 33900 nM, the TGI (Malme-3M [3]) was 2410 nM and the growth at 10 µM (IGROV-1) was 14%. For the same compound, the growth at 10 µM (MDA-MB-435) was -50%, the GI50 (M14) was 754 nM and the LC50 (concentration killing 50% of cells) (M14) was 4650 nM. The TGI (M14) was 1870 nM, the GI50 (SF-268) was 1360 nM and the TGI (SF-268) was 5430 nM. For the same compound, the CC50 (SF-268; [14]) was 50000 nM, the GI50 (SR) was 886 nM and the TGI (SR) was 2840 nM. It also gave a CC50 (SR; [14]) greater than 50000 nM, a GI50 (A498) of 958 nM and an IC50 (A498) of 960 nM. It also gave a TGI (A498) of 4040 nM, a CC50 (A498; [14]) greater than 50000 nM and a growth at 10 µM [4] of -11.9%. The growth at 10 µM (A549) was -14%, the GI50 (OVCAR-4 [5]) was 1100 nM and the LC50 (concentration killing 50% of cells) (OVCAR-4 [5]) was greater than 50000 nM. For the same compound, the TGI (OVCAR-4 [5]) was 2100 nM, the growth at 10 µM (HCT-15 [6]) was 5.28% and the growth at 10 µM (NCI-H226 [7]) was 4.3%. It also gave a growth at 10 µM (HT-29) of -64%, a growth at 10 µM (KM12) of -27.8% and a growth at 10 µM (NCI-H322M) of 21.7%. For the same compound, the growth at 10 µM (HOP-92 [8]) was -33.6%, the GI50 (COLO 205) was 894 nM and the LC50 (concentration killing 50% of cells) (COLO 205) was 3430 nM. The TGI (COLO 205) was 1750 nM, the growth at 10 µM (CCRF-CEM) was -9.68% and the GI50 (HOP-62) was 1340 nM. For the same compound, the TGI (HOP-62) was 4070 nM, the CC50 (HOP-62; [14]) was greater than 50000 nM and the GI50 (OVCAR-8) was 739 nM. For the same compound, the TGI (OVCAR-8) was 2700 nM, the CC50 (OVCAR-8; [14]) was greater than 50000 nM and the GI50 (HCT-15 [9]) was 870 nM. It also gave an LC50 (HCT-15 [9]) of 50000 nM, a TGI (HCT-15 [9]) of 5420 nM and a growth at 10 µM (SF-539) of -34.2%. It also gave a GI50 (ACHN) of 656 nM, a TGI (ACHN) of 3720 nM and a CC50 (ACHN; [14]) greater than 50000 nM. The growth at 10 µM (Malme-3M [10]) was -32.1%, the GI50 (SN12C) was 1400 nM and the TGI (SN12C) was 21900 nM. The CC50 (SN12C; [14]) was greater than 50000 nM, the growth at 10 µM (MOLT-4) was -26.3% and the growth at 10 µM (MCF7) was -6.3%. For the same compound, the GI50 (NCI-H226 [11]) was 1380 nM, the TGI (NCI-H226 [11]) was greater than 50000 nM and the CC50 (NCI-H226 [11]; [14]) was greater than 50000 nM. The GI50 (UACC-62) was 725 nM, the LC50 (50% lethal concentration) (UACC-62) was 3480 nM and the TGI (UACC-62) was 1590 nM. The GI50 (HCT-116) was 900 nM, the TGI (HCT-116) was 7170 nM and the CC50 (HCT-116; [14]) was greater than 50000 nM. It also gave a GI50 (SNB-19) of 981 nM, an LC50 (concentration killing 50% of cells) (SNB-19) greater than 50000 nM and a TGI (SNB-19) of 4000 nM. It also gave a GI50 (HOP-92 [12]) of 557 nM, an IC50 (HOP-92 [12]) of 560 nM and an LC50 (HOP-92 [12]) greater than 50000 nM. It also gave a TGI (HOP-92 [12]) of 1770 nM, a GI50 (LOX IMVI [13]) of 789 nM and an LC50 (LOX IMVI [13]) of 3460 nM. The TGI (LOX IMVI [13]) was 1650 nM.
